Results taken from PubChem BioAssay AID2060903 (Molecular Pharmacology Branch, DTP, NCI, 2025).
pIC50: −log10 of the molar value. Blank lines part the entries; values can stand above or below the compound they belong to.

Test system: 377384-186-R-J1-PDC complex spheroid viability
Assay: Anticancer human tumor 377384-186-R-J1-PDC patient-derived pancreatic carcinoma cell line growth inhibition [RAS]
Settings: for pIC50: curve of first compound; for viability, T/C: stronger effect = lower value
Outline: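 Multi-cell-type spheroids: tumor cells plus HUVEC endothelial cells and mesenchymal stem cells. RAS-pathway inhibitors were combined with targeted agents, each dosed in half-log steps down from clinical Cmax, or from 10 microM when Cmax was unknown.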

[1] = second compound 0.00316 µM, first compound 0.0316 µM
[2] = second compound 0.00316 µM, first compound 0.1 µM
[3] = second compound 0.00316 µM, first compound 0.316 µM
[4] = second compound 0.00316 µM, first compound 1 µM
[5] = second compound 0.01 µM, first compound 0.0316 µM
[6] = second compound 0.01 µM, first compound 0.1 µM
[7] = second compound 0.01 µM, first compound 0.316 µM
[8] = second compound 0.01 µM, first compound 1 µM
[9] = second compound 0.0316 µM, first compound 0.0316 µM
[10] = second compound 0.0316 µM, first compound 0.1 µM
[11] = second compound 0.0316 µM, first compound 0.316 µM
[12] = second compound 0.0316 µM, first compound 1 µM
[13] = second compound 0.0316 µM, first compound 3.16 µM
[14] = second compound 0.0316 µM, first compound 10 µM
[15] = second compound 0.1 µM, first compound 0.0316 µM
[16] = second compound 0.1 µM, first compound 0.1 µM
[17] = second compound 0.1 µM, first compound 0.316 µM
[18] = second compound 0.1 µM, first compound 1 µM
[19] = second compound 0.1 µM, first compound 3.16 µM
[20] = second compound 0.1 µM, first compound 10 µM
[21] = second compound 0.316 µM, first compound 0.0316 µM
[22] = second compound 0.316 µM, first compound 0.1 µM
[23] = second compound 0.316 µM, first compound 0.316 µM
[24] = second compound 0.316 µM, first compound 1 µM
[25] = second compound 0.316 µM, first compound 3.16 µM
[26] = second compound 0.316 µM, first compound 10 µM
[27] = second compound 1 µM, first compound 0.0316 µM
[28] = second compound 1 µM, first compound 0.1 µM
[29] = second compound 1 µM, first compound 0.316 µM
[30] = second compound 1 µM, first compound 1 µM
[31] = second compound 1 µM, first compound 3.16 µM
[32] = second compound 1 µM, first compound 10 µM
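Also: spheroids exposed to compounds for seven days before readout.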

pIC50 (second compound 0.00316 µM): < 5.00
pIC50 (second compound 0.01 µM): < 5.00
pIC50 (second compound 0.0316 µM): < 5.00
pIC50 (second compound 0.1 µM): < 5.00
pIC50 (second compound 0.316 µM): < 5.00
pIC50 (second compound 1 µM): < 5.00
Compound: NC1c2ccccc2OC12CCN(c1cnc3c(N4CCCc5ncccc54)n[nH]c3n1)CC2 (stereo unspecified) + C=CC(=O)N1CCN(c2nc(OCC3CCCN3C)nc3c(F)c(-c4nc(N)cc(C)c4C(F)(F)F)c(Cl)cc23)C(C)C1
viability, T/C [1]: 82.9%
viability, T/C [2]: 77%
viability, T/C [3]: 66.5%
viability, T/C [4]: 69.1%
viability, T/C (second compound 0.00316 µM, first compound 3.16 µM): 75.6%
viability, T/C (second compound 0.00316 µM, first compound 10 µM): 68.4%
viability, T/C [5]: 86.9%
viability, T/C [6]: 63.1%
viability, T/C [7]: 76.8%
viability, T/C [8]: 71.9%
viability, T/C (second compound 0.01 µM, first compound 3.16 µM): 65.8%
viability, T/C (second compound 0.01 µM, first compound 10 µM): 63.8%
viability, T/C [9]: 83.5%
viability, T/C [10]: 68.8%
viability, T/C [11]: 76%
viability, T/C [12]: 65.7%
viability, T/C [13]: 57.7%
viability, T/C [14]: 66%
viability, T/C [15]: 90.7%
viability, T/C [16]: 70.1%
viability, T/C [17]: 75.9%
viability, T/C [18]: 64.5%
viability, T/C [19]: 72.1%
viability, T/C [20]: 70.7%
viability, T/C [21]: 81.2%
viability, T/C [22]: 70.8%
viability, T/C [23]: 78.9%
viability, T/C [24]: 70.3%
viability, T/C [25]: 71.8%
viability, T/C [26]: 71%
viability, T/C [27]: 79.3%
viability, T/C [28]: 73.3%
viability, T/C [29]: 77.9%
viability, T/C [30]: 73.1%
viability, T/C [31]: 76.3%
viability, T/C [32]: 68.4%

pIC50 (second compound 0.0316 µM): > 7.50
pIC50 (second compound 0.1 µM): > 7.50
pIC50 (second compound 0.316 µM): > 7.50
pIC50 (second compound 1 µM): > 7.50
pIC50 (second compound 3.16 µM): > 7.50
pIC50 (second compound 10 µM): > 7.50
Compound: CC(Nc1ccc2c(c1)OCCn1cc(N3C(=O)OCC3C(F)F)nc1-2)C(N)=O (stereo unspecified) + C#Cc1c(F)ccc2cc(O)cc(-c3ncc4c(N5CC6CCC(C5)N6)nc(OCC56CCCN5CC(F)C6)nc4c3F)c12
viability, T/C [9]: 15.8%
viability, T/C [10]: 14.3%
viability, T/C [11]: 7.76%
viability, T/C [12]: 6.8%
viability, T/C [13]: 5.84%
viability, T/C [14]: 4.21%
viability, T/C [15]: 6.67%
viability, T/C [16]: 6.43%
viability, T/C [17]: 3.06%
viability, T/C [18]: 2.11%
viability, T/C [19]: 1.21%
viability, T/C [20]: 0.7%
viability, T/C [21]: 3.3%
viability, T/C [22]: 2.54%
viability, T/C [23]: 1.59%
viability, T/C [24]: 0.81%
viability, T/C [25]: 0.63%
viability, T/C [26]: 0.43%
viability, T/C [27]: 2.75%
viability, T/C [28]: 1.42%
viability, T/C [29]: 0.85%
viability, T/C [30]: 0.69%
viability, T/C [31]: 0.44%
viability, T/C [32]: 0.27%
viability, T/C (second compound 3.16 µM, first compound 0.0316 µM): 1.42%
viability, T/C (second compound 3.16 µM, first compound 0.1 µM): 0.91%
viability, T/C (second compound 3.16 µM, first compound 0.316 µM): 0.56%
viability, T/C (second compound 3.16 µM, first compound 1 µM): 0.32%
viability, T/C (second compound 3.16 µM, first compound 3.16 µM): 0.39%
viability, T/C (second compound 3.16 µM, first compound 10 µM): 0.32%
viability, T/C (second compound 10 µM, first compound 0.0316 µM): 0.95%
viability, T/C (second compound 10 µM, first compound 0.1 µM): 0.23%
viability, T/C (second compound 10 µM, first compound 0.316 µM): 0.14%
viability, T/C (second compound 10 µM, first compound 1 µM): 0.17%
viability, T/C (second compound 10 µM, first compound 3.16 µM): 0.45%
viability, T/C (second compound 10 µM, first compound 10 µM): 0.11%

pIC50 (second compound 0.00316 µM): 7.37
pIC50 (second compound 0.01 µM): 7.48
pIC50 (second compound 0.0316 µM): 7.44
pIC50 (second compound 0.1 µM): 7.43
pIC50 (second compound 0.316 µM): 7.39
pIC50 (second compound 1 µM): 7.35
Compound: O=C(c1ccc(F)c(F)c1Nc1ccc(I)cc1F)N1CC(O)([C@@H]2CCCCN2)C1 + C=CC(=O)N1CCN(c2nc(OCC3CCCN3C)nc3c(F)c(-c4nc(N)cc(C)c4C(F)(F)F)c(Cl)cc23)C(C)C1
viability, T/C (second compound 0.00316 µM, first compound 0.00316 µM): 81.3%
viability, T/C (second compound 0.00316 µM, first compound 0.01 µM): 79.2%
viability, T/C [1]: 58.5%
viability, T/C [2]: 23.8%
viability, T/C [3]: 3.06%
viability, T/C [4]: 0.45%
viability, T/C (second compound 0.01 µM, first compound 0.00316 µM): 94.9%
viability, T/C (second compound 0.01 µM, first compound 0.01 µM): 77.9%
viability, T/C [5]: 51.3%
viability, T/C [6]: 23.6%
viability, T/C [7]: 2.14%
viability, T/C [8]: 0.43%
viability, T/C (second compound 0.0316 µM, first compound 0.00316 µM): 93.3%
viability, T/C (second compound 0.0316 µM, first compound 0.01 µM): 73.3%
viability, T/C [9]: 58.9%
viability, T/C [10]: 20%
viability, T/C [11]: 2.38%
viability, T/C [12]: 0.3%
viability, T/C (second compound 0.1 µM, first compound 0.00316 µM): 94.6%
viability, T/C (second compound 0.1 µM, first compound 0.01 µM): 68.5%
viability, T/C [15]: 62.3%
viability, T/C [16]: 20.7%
viability, T/C [17]: 2.8%
viability, T/C [18]: 0.78%
viability, T/C (second compound 0.316 µM, first compound 0.00316 µM): 77.7%
viability, T/C (second compound 0.316 µM, first compound 0.01 µM): 74.7%
viability, T/C [21]: 57.5%
viability, T/C [22]: 22.5%
viability, T/C [23]: 2.78%
viability, T/C [24]: 0.48%
viability, T/C (second compound 1 µM, first compound 0.00316 µM): 88.8%
viability, T/C (second compound 1 µM, first compound 0.01 µM): 80.8%
viability, T/C [27]: 62%
viability, T/C [28]: 24.5%
viability, T/C [29]: 2.77%
viability, T/C [30]: 0.56%
